Reference: publication PMC2248166, “Quantitative peptide binding motifs for 19 human and mouse MHC class I molecules derived using positional scanning combinatorial peptide libraries” (Immunome Research, 2008)

What was measured:
Format in all cases: binding
HLA A*3001 = HLA A*3001 (Homo sapiens, UniProt P04439, D140H/D185E/E176W/F33S/G80R/H175R/K168Q/R138E/R41S); experiment: biochemical
HLA A*3201 = HLA A*3201 (Homo sapiens, UniProt P04439, A270S/D101S/D185E/E176V/E277Q/F133L/G103R/G107R/G231S/H175R/I121M/I218V/I322F/K168Q/L105A/L300P/L318F/M331R/P208A/P217A/Q94H/R106L/R138Q/S129P/T104I/T323A/T345S/V100E/V321M/V358M); experiment: biochemical
HLA A*6802 = HLA A*6802 (Homo sapiens, UniProt P04439, A269V/D140Y/D185E/E176V/E277Q/E87N/F33Y/G231S/I121R/I166T/I218V/L180W/L300P/L318F/N151K/P208A/P217A/Q86R/R138H/R169H/S129P/T345S/V36M)
HLA B*0801 = HLA B*0801 (Homo sapiens, UniProt P01889, A93T/A95T/D138N/E176V/E187T/K202T/Q94N/R180D/S35A/V36M/Y33D/Y91F); experiment: biochemical
HLA B*1501 = HLA B*1501 (Homo sapiens, UniProt P01889, A329T/A93T/A95T/C349S/D201E/D98Y/E187L/E204Q/E69M/E70A/K202T/N87E/Q94N/R155S/R180W/S121R/S35A/S48A/V306I/V36M/Y140S/Y91S); experiment: biochemical
HLA B*1503 = HLA B*1503 (Homo sapiens, UniProt P01889, A329T/A93T/A95T/C349S/D201E/D98Y/E187L/E204Q/K202T/N87E/Q94N/R155S/R180L/S121R/S35A/V306I/V36M/Y140S/Y91S); experiment: biochemical
HLA B*3501 = HLA B*3501 (Homo sapiens, UniProt P01889, A329T/A93T/A95T/C349S/D201E/D98Y/E176V/E187L/E204Q/E69T/I218V/K202T/L119I/Q94N/R155S/R180L/S121R/S35A/S48A/T118I/V127L/V306I/V36M/Y140S/Y91F)
HLA B*5101 = HLA B*5101 (Homo sapiens, UniProt P01889, A329T/A93T/A95T/C349S/D138N/D201E/D98Y/E187L/E204Q/E69T/G107R/I218V/K202T/L105A/L119W/N104I/Q94N/R106L/R155S/R180L/S101N/S121T/S35A/S48A/V306I/V36M/Y195H/Y91F)
HLA B*5301 = HLA B*5301 (Homo sapiens, UniProt P01889, A329T/A93T/A95T/C349S/D201E/D98Y/E176V/E187L/E204Q/E69T/G107R/I218V/K202T/L105A/L119I/N104I/Q94N/R106L/R155S/R180L/S101N/S121R/S35A/S48A/T118I/V127L/V306I/V36M/Y140S/Y91F)
HLA B*5401 = HLA B*5401 (Homo sapiens, UniProt P01889, A329T/C349S/D138N/D201E/E176V/E187T/E204Q/E69G/I76V/K202T/L119W/R155S/R180L/S121T/S35A/S48A/V127L/V306I/V36M/Y140L)
HLA B*5801 = HLA B*5801 (Homo sapiens, UniProt P01889, A329T/C349S/D201E/D98Y/E176V/E187L/E204Q/E69T/G107R/I218V/I90N/K202T/L105A/L119I/N104I/N87E/Q89R/Q94S/R106L/R155S/R180L/R86G/S101N/S121R/S35A/S48A/T118I/V127L/V306I/V36M/Y140S/Y91M)
HLA B*5802 = HLA B*5802 (Homo sapiens, UniProt P01889, A329T/C349S/D201E/D98Y/E176V/E187L/E204Q/E69T/G107R/I218V/I90N/K202T/L105A/N104I/N87E/Q89R/Q94S/R106L/R155S/R180L/R86G/S101N/S121W/S35A/S48A/V127L/V306I/V36M/Y140S/Y91M)
H-2 D^b = H-2 D^b (Mus musculus, UniProt P01899)
H-2 D^b, sequence (P01887 21-119): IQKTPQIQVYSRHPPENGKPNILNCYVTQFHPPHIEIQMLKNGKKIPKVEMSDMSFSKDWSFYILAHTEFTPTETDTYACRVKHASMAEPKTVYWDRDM
H-2 D^b, sequence (P01899 25-362): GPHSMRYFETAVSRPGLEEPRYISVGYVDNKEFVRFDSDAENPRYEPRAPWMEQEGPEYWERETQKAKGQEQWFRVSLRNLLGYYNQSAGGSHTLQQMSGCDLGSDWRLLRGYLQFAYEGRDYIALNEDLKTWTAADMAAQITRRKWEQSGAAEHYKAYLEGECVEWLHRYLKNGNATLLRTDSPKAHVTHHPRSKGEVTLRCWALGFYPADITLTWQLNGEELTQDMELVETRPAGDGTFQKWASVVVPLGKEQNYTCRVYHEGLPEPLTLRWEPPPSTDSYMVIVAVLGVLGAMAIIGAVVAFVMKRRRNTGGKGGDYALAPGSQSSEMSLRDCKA

H-2 D^d = H-2 D^d (Mus musculus, UniProt P01900)
H-2 D^d, sequence (P01900 whole entry, looked up): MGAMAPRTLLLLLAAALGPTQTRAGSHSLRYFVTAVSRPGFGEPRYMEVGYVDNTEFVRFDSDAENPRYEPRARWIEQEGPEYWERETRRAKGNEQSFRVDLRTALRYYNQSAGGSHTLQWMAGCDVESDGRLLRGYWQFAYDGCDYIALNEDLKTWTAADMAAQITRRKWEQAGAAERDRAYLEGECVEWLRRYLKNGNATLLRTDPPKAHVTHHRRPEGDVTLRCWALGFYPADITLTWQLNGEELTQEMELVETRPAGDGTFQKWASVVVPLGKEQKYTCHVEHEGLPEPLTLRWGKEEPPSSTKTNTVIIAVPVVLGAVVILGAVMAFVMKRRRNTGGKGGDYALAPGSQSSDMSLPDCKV

H-2 K^d = H-2 K^d (Mus musculus, UniProt P01902)
H-2 K^d, sequence (P01887 21-119): as the sequence (P01887 21-119) above
H-2 K^d, sequence (P01902 22-368): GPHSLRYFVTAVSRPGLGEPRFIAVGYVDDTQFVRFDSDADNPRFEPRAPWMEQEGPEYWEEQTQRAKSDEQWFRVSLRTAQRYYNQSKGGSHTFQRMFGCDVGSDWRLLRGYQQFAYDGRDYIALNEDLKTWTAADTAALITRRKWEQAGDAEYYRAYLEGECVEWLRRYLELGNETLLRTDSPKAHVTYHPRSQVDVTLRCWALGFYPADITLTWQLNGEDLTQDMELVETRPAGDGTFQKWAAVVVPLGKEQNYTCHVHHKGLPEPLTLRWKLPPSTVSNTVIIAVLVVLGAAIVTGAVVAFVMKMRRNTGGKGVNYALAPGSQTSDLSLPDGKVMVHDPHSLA

H-2 K^k = H-2 K^k (Mus musculus, UniProt P04223)
H-2 K^k, sequence (P01887 21-119): as the sequence (P01887 21-119) above
H-2 K^k, sequence (P04223 22-369): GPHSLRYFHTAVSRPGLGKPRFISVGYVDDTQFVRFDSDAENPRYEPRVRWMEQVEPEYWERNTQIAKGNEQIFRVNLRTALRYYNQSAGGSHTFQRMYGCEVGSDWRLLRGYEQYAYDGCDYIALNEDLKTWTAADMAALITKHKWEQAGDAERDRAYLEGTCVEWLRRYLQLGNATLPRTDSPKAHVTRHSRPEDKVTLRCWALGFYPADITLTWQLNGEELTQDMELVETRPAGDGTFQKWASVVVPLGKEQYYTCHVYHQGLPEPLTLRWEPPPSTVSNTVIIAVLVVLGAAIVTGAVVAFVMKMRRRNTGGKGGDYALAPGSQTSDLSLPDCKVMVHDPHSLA

Sequence	Normalized average relative binding affinity(ARB) (HLA A*3001)	Normalized average relative binding affinity(ARB) (HLA A*3201)	Normalized average relative binding affinity(ARB) (HLA A*6802)	Normalized average relative binding affinity(ARB) (HLA B*0801)	Normalized average relative binding affinity(ARB) (HLA B*1501)	Normalized average relative binding affinity(ARB) (HLA B*1503)	Normalized average relative binding affinity(ARB) (HLA B*3501)	Normalized average relative binding affinity(ARB) (HLA B*5101)	Normalized average relative binding affinity(ARB) (HLA B*5301)	Normalized average relative binding affinity(ARB) (HLA B*5401)	Normalized average relative binding affinity(ARB) (HLA B*5801)	Normalized average relative binding affinity(ARB) (HLA B*5802)	Normalized average relative binding affinity(ARB) (H-2 D^b)	Normalized average relative binding affinity(ARB) (H-2 D^d)	Normalized average relative binding affinity(ARB) (H-2 K^d)	Normalized average relative binding affinity(ARB) (H-2 K^k)
XXXXXXNXX [3064.0132]	0.10	0.42	0.54	0.69	0.66	1.0	0.28	0.46	0.29	0.39	0.37	0.092	0.41	0.095	0.61	0.22
XXXEXXXXX [3064.0064]	0.34	0.36	0.14	0.24	0.27	0.25	0.087	0.46	0.24	0.15	0.21	0.18	0.35	0.38	0.18	0.41
XXXXPXXXX [3064.0093]	0.53	0.16	0.16	0.011	0.89	0.46	0.37	0.50	0.14	0.51	0.19	0.075	0.038	0.023	0.094	0.072
XXXXXXEXX [3064.0124]	0.050	0.092	0.42	0.32	0.49	0.043	0.36	0.37	0.29	0.26	0.15	0.092	0.96	0.060	0.14	0.13
XXXXYXXXX [3064.0100]	0.21	0.28	0.27	0.064	0.95	0.34	0.22	0.26	0.087	0.084	0.33	0.62	0.013	0.24	0.015	0.14
